Reference: PubChem BioAssay (NCI)
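96-well plates; 48 h exposure; 5 concentrations. Endpoints by linear interpolation between flanking doses. Not reached: highest tested concentration assigned. Here, GI50 denotes the concentration required for 50% inhibition of growth. TGI: concentration producing complete growth inhibition.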

Legend:
Test in all cases: inhibition of tumour cell growth, NCI panel, 48 h; in the data active means GI50 below about 0.43 µM; inactive means the rest
OVCAR-8 ovarian = system: OVCAR-8 ovarian
COLO 205 colon = system: COLO 205 colon
MOLT-4 leukemia = system: MOLT-4 leukemia
CAKI-1 renal = system: CAKI-1 renal
SW-620 colon = system: SW-620 colon
KM12 colon = system: KM12 colon
MDA-MB-231 breast = system: MDA-MB-231 breast
TK-10 renal = system: TK-10 renal
NCI/ADR-RES ovarian = system: NCI/ADR-RES ovarian
SF-268 CNS = system: SF-268 CNS
A498 renal = system: A498 renal
MCF7 breast = system: MCF7 breast
MDA-MB-435 = system: MDA-MB-435
SF-539 CNS = system: SF-539 CNS
786-0 renal = system: 786-0 renal
SNB-19 CNS = system: SNB-19 CNS
NCI-H23 lung = system: NCI-H23 lung
OVCAR-5 ovarian = system: OVCAR-5 ovarian
SR leukemia = system: SR leukemia
HS 578T breast = system: HS 578T breast
HT29 colon = system: HT29 colon
K-562 leukemia = system: K-562 leukemia
SK-MEL-5 melanoma = system: SK-MEL-5 melanoma
UACC-62 melanoma = system: UACC-62 melanoma

COC(=O)c1ccc(NC2=C(Cl)C(=O)C(C)=C(C)C2=O)cc1
4.02 µM: TGI (SR leukemia)
4.64 µM: TGI (KM12 colon)
5.31 µM: TGI (K-562 leukemia)
4.08 µM: TGI (SK-MEL-5 melanoma)
93.8 µM: TGI (HS 578T breast)
5.13 µM: TGI (MOLT-4 leukemia)
5.91 µM: TGI (SF-539 CNS)
> 100 µM: TGI (OVCAR-8 ovarian) | TGI (COLO 205 colon) | TGI (CAKI-1 renal) | TGI (TK-10 renal) | TGI (SF-268 CNS) | TGI (MCF7 breast) | TGI (786-0 renal) | TGI (SNB-19 CNS) | TGI (NCI-H23 lung) | TGI (OVCAR-5 ovarian) | TGI (HT29 colon)
10.9 µM: TGI (NCI/ADR-RES ovarian)
inactive: GI50 (OVCAR-8 ovarian) 6.89 µM | GI50 (COLO 205 colon) 7.69 µM | GI50 (MOLT-4 leukemia) 1.43 µM | GI50 (CAKI-1 renal) 2.95 µM | GI50 (SW-620 colon) 2.1 µM | GI50 (KM12 colon) 2.06 µM | GI50 (MDA-MB-231 breast) 2.68 µM | GI50 (TK-10 renal) > 100 µM | GI50 (NCI/ADR-RES ovarian) 2.65 µM | GI50 (SF-268 CNS) 3.79 µM | GI50 (A498 renal) 2.06 µM | GI50 (MCF7 breast) 2.66 µM | GI50 (MDA-MB-435) 1.84 µM | GI50 (SF-539 CNS) 2.33 µM | GI50 (786-0 renal) 15.1 µM | GI50 (SNB-19 CNS) 3.32 µM | GI50 (NCI-H23 lung) 3.77 µM | GI50 (OVCAR-5 ovarian) 6.08 µM | GI50 (SR leukemia) 1.22 µM | GI50 (HS 578T breast) 4 µM | GI50 (HT29 colon) 6.64 µM | GI50 (K-562 leukemia) 1.58 µM | GI50 (SK-MEL-5 melanoma) 1.92 µM | GI50 (UACC-62 melanoma) 1.77 µM
7.71 µM: TGI (MDA-MB-231 breast)
8.73 µM: TGI (MDA-MB-435)
4.42 µM: TGI (SW-620 colon)
96.7 µM: TGI (A498 renal)
